Experimental data: US20230398130A1, “METHODS AND COMPOSITIONS FOR DIFFERENTIATING STEM CELLS” (Massachusetts Institute of Technology, priority 2020, published 2023)

Columns and labels:
ISC-enriched organoids [1] = experiment: Primary screen, 384-well 2.5-D organoid differentiation (ENR+CD, 6 days): basal lysozyme secretion (LYZ.NS); assay type: cell-based, murine; conditions: primary screen; for SSMD.LYZ.NS: strictly standardized mean difference; for Dose.FC.LYZ.NS: FC vs plate median; for Z.LYZ.NS: standard z score
From the text: (§1) High-throughput screening.

ISC-enriched organoids [2] = experiment: Primary screen, 384-well 2.5-D organoid differentiation (ENR+CD, 6 days): carbachol-induced lysozyme secretion (LYZ.S); assay type: cell-based, murine; conditions: primary screen; for Z.LYZ.S: standard z score; for SSMD.LYZ.S: strictly standardized mean difference; for Dose.FC.LYZ.S: FC vs plate median
From the text: as §1

ISC-enriched organoids [3] = experiment: Primary screen, 384-well 2.5-D organoid differentiation (ENR+CD, 6 days, Target Selective Inhibitor Library, vs whole-plate median): ATP (CellTiter-Glo 3D, CTG); conditions: primary screen; for Z.CTG: standard z score; for SSMD.CTG: strictly standardized mean difference; for Dose.FC.CTG: FC vs plate median
[4] = 1st of the 4 dose lines of the treatment (dose not given)
[5] = 2nd of the 4 dose lines of the treatment (dose not given)
[6] = 3rd of the 4 dose lines of the treatment (dose not given)
[7] = 4th of the 4 dose lines of the treatment (dose not given)

Nc1nc(OCc2cc(Br)cs2)c2[nH]cnc2n1 [Lomeguatrib]
SSMD.LYZ.NS (ISC-enriched organoids [1]; [4]): −0.474
SSMD.LYZ.NS (ISC-enriched organoids [1]; [5]): −0.137
SSMD.LYZ.NS (ISC-enriched organoids [1]; [6]): −0.189
SSMD.LYZ.NS (ISC-enriched organoids [1]; [7]): −1.038
Z.LYZ.S (ISC-enriched organoids [2]; [4]): −0.528
Z.LYZ.S (ISC-enriched organoids [2]; [5]): −0.139
Z.LYZ.S (ISC-enriched organoids [2]; [6]): −0.356
Z.LYZ.S (ISC-enriched organoids [2]; [7]): −0.893
SSMD.LYZ.S (ISC-enriched organoids [2]; [4]): −0.435
SSMD.LYZ.S (ISC-enriched organoids [2]; [5]): −0.121
SSMD.LYZ.S (ISC-enriched organoids [2]; [6]): −0.346
SSMD.LYZ.S (ISC-enriched organoids [2]; [7]): −0.820
Z.CTG (ISC-enriched organoids [3]; Dose 0.08 uM): −1.017
Z.CTG (ISC-enriched organoids [3]; Dose 0.40 uM): −0.739
Z.CTG (ISC-enriched organoids [3]; Dose 2.00 uM): 0.178
Z.CTG (ISC-enriched organoids [3]; Dose 10.00 uM): −0.192
SSMD.CTG (ISC-enriched organoids [3]; [4]): −0.489
SSMD.CTG (ISC-enriched organoids [3]; [5]): −0.422
SSMD.CTG (ISC-enriched organoids [3]; [6]): 0.193
SSMD.CTG (ISC-enriched organoids [3]; [7]): −0.190

CCOC(=O)N1CCC(=C2c3ccc(Cl)cc3CCc3cccnc32)CC1 [Loratadine]
SSMD.LYZ.NS (ISC-enriched organoids [1]; [4]): 0.098
SSMD.LYZ.NS (ISC-enriched organoids [1]; [5]): −0.004
SSMD.LYZ.NS (ISC-enriched organoids [1]; [6]): −0.783
SSMD.LYZ.NS (ISC-enriched organoids [1]; [7]): −0.977
Z.LYZ.S (ISC-enriched organoids [2]; [4]): −0.490
Z.LYZ.S (ISC-enriched organoids [2]; [5]): 0.069
Z.LYZ.S (ISC-enriched organoids [2]; [6]): −0.959
Z.LYZ.S (ISC-enriched organoids [2]; [7]): −0.956
SSMD.LYZ.S (ISC-enriched organoids [2]; [4]): −0.535
SSMD.LYZ.S (ISC-enriched organoids [2]; [5]): 0.082
SSMD.LYZ.S (ISC-enriched organoids [2]; [6]): −0.811
SSMD.LYZ.S (ISC-enriched organoids [2]; [7]): −1.029
Z.CTG (ISC-enriched organoids [3]; Dose 0.08 uM): −0.697
Z.CTG (ISC-enriched organoids [3]; Dose 0.40 uM): 0.347
Z.CTG (ISC-enriched organoids [3]; Dose 2.00 uM): −0.488
Z.CTG (ISC-enriched organoids [3]; Dose 10.00 uM): −0.287
SSMD.CTG (ISC-enriched organoids [3]; [4]): −0.683
SSMD.CTG (ISC-enriched organoids [3]; [5]): 0.535
SSMD.CTG (ISC-enriched organoids [3]; [6]): −0.609
SSMD.CTG (ISC-enriched organoids [3]; [7]): −0.360

CCCCc1nc(Cl)c(CO)n1Cc1ccc(-c2ccccc2-c2nnn[n-]2)cc1.[K+] [Losartan Potassium (DuP 753)]
Dose.FC.LYZ.NS (ISC-enriched organoids [1]; Dose 0.08 uM): 0.052 log 2 fold change
Z.LYZ.NS (ISC-enriched organoids [1]; Dose 0.08 uM): 0.449
Dose.FC.LYZ.NS (ISC-enriched organoids [1]; Dose 0.40 uM): 0.038 log 2 fold change
Z.LYZ.NS (ISC-enriched organoids [1]; Dose 0.40 uM): 0.329
Dose.FC.LYZ.NS (ISC-enriched organoids [1]; Dose 2.00 uM): −0.042 log 2 fold change
Z.LYZ.NS (ISC-enriched organoids [1]; Dose 2.00 uM): −0.362
Dose.FC.LYZ.NS (ISC-enriched organoids [1]; Dose 10.00 uM): 0.062 log 2 fold change
Z.LYZ.NS (ISC-enriched organoids [1]; Dose 10.00 uM): 0.540
SSMD.LYZ.NS (ISC-enriched organoids [1]; [4]): 0.273
SSMD.LYZ.NS (ISC-enriched organoids [1]; [5]): 0.263
SSMD.LYZ.NS (ISC-enriched organoids [1]; [6]): −0.341
SSMD.LYZ.NS (ISC-enriched organoids [1]; [7]): 0.423
Dose.FC.LYZ.S (ISC-enriched organoids [2]; Dose 0.08 uM): −0.017 log 2 fold change
Dose.FC.LYZ.S (ISC-enriched organoids [2]; Dose 0.40 uM): 0.027 log 2 fold change
Dose.FC.LYZ.S (ISC-enriched organoids [2]; Dose 2.00 uM): −0.080 log 2 fold change
Dose.FC.LYZ.S (ISC-enriched organoids [2]; Dose 10.00 uM): −0.025 log 2 fold change
Z.LYZ.S (ISC-enriched organoids [2]; [4]): −0.112
Z.LYZ.S (ISC-enriched organoids [2]; [5]): 0.173
Z.LYZ.S (ISC-enriched organoids [2]; [6]): −0.519
Z.LYZ.S (ISC-enriched organoids [2]; [7]): −0.164
SSMD.LYZ.S (ISC-enriched organoids [2]; [4]): −0.104
SSMD.LYZ.S (ISC-enriched organoids [2]; [5]): 0.194
SSMD.LYZ.S (ISC-enriched organoids [2]; [6]): −0.616
SSMD.LYZ.S (ISC-enriched organoids [2]; [7]): −0.185
Dose.FC.CTG (ISC-enriched organoids [3]; Dose 0.08 uM): −0.152 log 2 fold change
Z.CTG (ISC-enriched organoids [3]; Dose 0.08 uM): −0.362
Dose.FC.CTG (ISC-enriched organoids [3]; Dose 0.40 uM): −0.175 log 2 fold change
Z.CTG (ISC-enriched organoids [3]; Dose 0.40 uM): −0.418
Dose.FC.CTG (ISC-enriched organoids [3]; Dose 2.00 uM): −0.081 log 2 fold change
Z.CTG (ISC-enriched organoids [3]; Dose 2.00 uM): −0.193
Dose.FC.CTG (ISC-enriched organoids [3]; Dose 10.00 uM): −0.137 log 2 fold change
Z.CTG (ISC-enriched organoids [3]; Dose 10.00 uM): −0.328
SSMD.CTG (ISC-enriched organoids [3]; [4]): −0.338
SSMD.CTG (ISC-enriched organoids [3]; [5]): −0.304
SSMD.CTG (ISC-enriched organoids [3]; [6]): −0.274
SSMD.CTG (ISC-enriched organoids [3]; [7]): −0.390
